Laboratory results as given in US20100168170A1, “Piperidinones Useful in the Treatment of Inflammation” (priority 2007, published 2010).

Assays:
[1] = biological target: PDE4 enzyme (U937 lysate or recombinant hPDE4); experiment: In vitro inhibition of PDE4 phosphodiesterases ([3H]cAMP SPA enzyme assay, Method A); assay type: biochemical, human; settings: Biological Example 1, Method A
Procedure: PDE4 U937 cytoplasmic extracts were prepared by a modified procedure of the assay described in MacKenzie, S. J. and Houslay, M. D., “Action of rolipram on specific PDE4 cAMP phosphodiesterase isoforms and on the phosphorylation of cAMP-response-element-binding protein (CREB) and p38 mitogen-activated protein (MAP) kinase in U937 monocytic cells”, Biochem J. (2000), 347(Pt 2):571-8, by lysis of U937 cells (ATCC: Catalogue No. CRL-159) in M-PER Lysis buffer (Pierce) containing 10% protease inhibitor cocktail (Sigma). The cell lysates were then centrifuged at 30,000 rpm for 15 minutes at 4° C. The supernatants were aliquoted and stored at −80° C.
An alternative source of PDE4 enzymes was from recombinant human PDE4 obtained from baculovirus-SF9 cells expression system. cDNA containing PDE4D1 was cloned into a baculovirus vector, insect cells (SF9) were then infected and cells cultured to express the PDE4 protein. The cells were lysed and used directly in assay or partially purified using standard procedures. The process can be used for other PDE4 and PDE enzymes.
Compounds of the invention were evaluated for inhibitory activity against PDE4 enzymes by the following assay Method A or B.
PDE4 assay based on modified procedure of Phosphodiesterase [^3H]cAMP SPA Enzyme Assay (Amersham Biosciences, code TRKQ 7090). In this assay, PDE4 enzymes converts [^3H]cAMP to [^3H]5′-AMP. The assay is quenched by the addition of SPA yttrium silicate beads which preferentially bind linear nucleotides over cyclic nucleotides in the presence of zinc sulphate.
Reactions were performed in duplicate by the addition of 10 μl PDE4 enzyme (U937 lysate or recombinant hPDE4) to 20 μL of assay mix and 20 μL of test compounds in Isoplates (Wallac) for 30 minutes, at 37° C. The final assay mixture contained: 50 mM Tris (pH 7.5), 8.3 mM MgCl2, 1.7 mM EGTA and [^3H]cAMP (0.025 μCi) (Amersham). Assay was terminated by addition 25 μL SPA beads. The plate was sealed, shaken for 1 minute and then allowed to settle 30 minutes and the cpm determined using a Wallac Micobeta.
PDE4 enzyme was added in quantities such that less than 15% of substrate was consumed (linear assay conditions).

human platelet PDE3 = biological target: T1, human platelet PDE3 (Homo sapiens, UniProt Q14432); experiment: In vitro inhibition of PDE3 phosphodiesterases (platelet extract, [3H]cAMP SPA); assay type: biochemical; settings: cAMP as substrate
T1 construct: tissue AllCells, LLC PB027; host or cells: human platelets, 70,000 g supernatant of sonicated lysate
T1 sequence (Q14432 whole entry): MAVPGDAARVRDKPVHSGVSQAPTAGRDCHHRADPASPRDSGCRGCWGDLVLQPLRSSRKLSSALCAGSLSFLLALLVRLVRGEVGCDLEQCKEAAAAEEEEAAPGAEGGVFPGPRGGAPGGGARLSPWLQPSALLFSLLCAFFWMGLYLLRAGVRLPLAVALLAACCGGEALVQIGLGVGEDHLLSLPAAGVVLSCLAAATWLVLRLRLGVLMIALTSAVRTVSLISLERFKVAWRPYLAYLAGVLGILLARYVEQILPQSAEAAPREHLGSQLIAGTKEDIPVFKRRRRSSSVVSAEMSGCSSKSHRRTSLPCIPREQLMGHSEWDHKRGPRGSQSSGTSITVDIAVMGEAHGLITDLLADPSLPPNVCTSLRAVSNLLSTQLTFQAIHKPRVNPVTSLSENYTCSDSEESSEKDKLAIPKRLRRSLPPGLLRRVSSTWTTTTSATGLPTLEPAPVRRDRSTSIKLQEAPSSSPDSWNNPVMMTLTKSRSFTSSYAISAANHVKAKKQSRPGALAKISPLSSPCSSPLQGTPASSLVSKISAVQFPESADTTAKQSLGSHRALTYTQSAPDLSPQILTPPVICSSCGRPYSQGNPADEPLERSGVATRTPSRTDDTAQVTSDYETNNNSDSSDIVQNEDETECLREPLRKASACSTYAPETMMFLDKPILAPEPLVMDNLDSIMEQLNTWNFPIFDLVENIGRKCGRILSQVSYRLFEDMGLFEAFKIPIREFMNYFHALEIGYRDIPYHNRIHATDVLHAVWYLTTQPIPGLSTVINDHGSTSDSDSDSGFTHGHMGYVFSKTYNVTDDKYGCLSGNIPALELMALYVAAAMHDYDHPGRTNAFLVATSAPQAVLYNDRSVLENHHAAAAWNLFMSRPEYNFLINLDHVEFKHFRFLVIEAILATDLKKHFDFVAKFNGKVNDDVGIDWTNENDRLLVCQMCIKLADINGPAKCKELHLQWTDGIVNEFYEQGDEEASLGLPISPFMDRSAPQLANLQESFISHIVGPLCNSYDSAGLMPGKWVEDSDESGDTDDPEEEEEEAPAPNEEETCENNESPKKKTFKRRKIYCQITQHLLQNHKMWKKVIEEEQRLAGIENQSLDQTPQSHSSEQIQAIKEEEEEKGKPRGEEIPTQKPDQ
Procedure: Compounds of the invention were evaluated for inhibitory activity against human platelet PDE3 to ascertain PDE3 inhibition. The PDE3 assay was performed using platelet cell extract as described above in Biological Example 1 for the PDE4 assay. Platelets are known contain PDE's 2, 3 and 5. However […] utilize cGMP, so in an assay with cAMP as a substrate they are not detected.
Human platelet cytoplasmic extracts were prepared by modified method of Keller et al. Human platelets (AllCells, LLC; Cat. No. PB027) were sonicated in supplemented lysis buffer. Supplemented lysis buffer consisted of 20 mM Tris, 1 mM EDTA, 1 mM DTT, 0.25 M sucrose, 1 mM benzamidine, 1 μg/mL Leupeptin, 1 μM Pepstatin, and 0.1 mM PMSF, pH 7.5. The platelet lysates were centrifuged at 70,000 g for 30 minutes at 4° C. The supernatants were aliquoted and stored at −80° C.
Reactions were performed in duplicate by the addition of 10 μL PDE3 lysate to 20 μL of assay mix and 20 μL of test compounds in Isoplates (Wallac) for 30 minutes, at 37° C. […] The plate was sealed, shaken for 1 minute and then allowed to settle 30 minutes and the cpm determined using a Wallac Micobeta.
PDE3 enzyme was added in quantities such that less than 15% of substrate was consumed (linear assay conditions).

Row | Structure (SMILES) | IC50 [1] [nM] | inhibition of PDE3 (assay specificity control) (human platelet PDE3)
1 | COc1ccc([C@H]2CNC(=O)[C@H](Cc3ccc(Oc4ccccc4)cc3)C2)cc1OC1CCCC1 [(3S,5S)-5-(3-(cyclopentyloxy)-4-methoxyphenyl)-3-(4-phenoxybenzyl)piperidin-2-one] | 457 | 
2 | CCCCCCCOc1cc([C@H]2CNC(=O)C(Cc3ccccc3)C2)ccc1OC (stereo partly drawn) [(5S)-3-benzyl-5-(3-(heptyloxy)-4-methoxyphenyl)piperidin-2-one] | 1280 | 
3 | CCCNc1cccc(C[C@@H]2C[C@@H](c3ccc(OC)c(OC4CCCC4)c3)CNC2=O)c1 [(3S,5S)-5-(3-(cyclopentyloxy)-4-methoxyphenyl)-3-(3-(propylamino)benzyl)-piperidin-2-one] | 604 | 
4 | COc1ccc([C@@H]2C[C@H](Cc3cccc(C)c3)C(=O)N(C(C)=O)C2)cc1OC1CCCC1 [(3R,5S)-1-acetyl-5-(3-(cyclopentyloxy)-4-methoxyphenyl)-3-(3-methylbenzyl)piperidin-2-one] | 1100 | 
5 | COc1ccc(C2CNC(=O)C2)cc1OC1CCCC1 (stereo not drawn) [rolipram] |  | without effect
6 | COc1cc(CC2C[C@@H](c3ccc(OC)c(OC4CCCC4)c3)CNC2=O)ccc1OC1CCCC1 (stereo partly drawn) [(5S)-3-(4-(cyclopentyloxy)-3-methoxybenzyl)-5-(3-(cyclopentyloxy)-4-methoxyphenyl)piperidin-2-one] | 379 | 
7 | COc1ccc([C@H]2CNC(=O)[C@@H](Cc3ccc(OCC(N)=O)cc3)C2)cc1OC1CCCC1 [2-(4-(((3R,5S)-5-(3-(cyclopentyloxy)-4-methoxyphenyl)-2-oxopiperidin-3-yl)methyl)phenoxy)acetamide] | 1340 | 
8 | COc1ccc([C@H]2CNC(=O)C(C(C)c3ccccc3)C2)cc1OC1CCCC1 (stereo partly drawn) [(5S)-5-(3-(cyclopentyloxy)-4-methoxyphenyl)-3-(1-phenylethyl)piperidin-2-one] | 1040 | 
9 | COc1ccc([C@H]2CNC(=O)[C@H](Cc3ccc(F)c(F)c3)C2)cc1OC1CCCC1 [(3S,5S)-5-(3-(cyclopentyloxy)-4-methoxyphenyl)-3-(3,4-difluorobenzyl)piperidin-2-one] | 101 | 
10 | COc1cc2c(cc1OC)-c1c/c(=N\c3c(C)cc(C)cc3C)n(C)c(=O)n1CC2 [trequinsin] |  | potent inhibitor
11 | COc1ccc([C@@H]2C[C@H](Cc3cccc(C)c3)C(=O)N(CC(C)C)C2)cc1OC1CCCC1 [(3R,5S)-5-(3-(cyclopentyloxy)-4-methoxyphenyl)-1-isobutyl-3-(3-methylbenzyl)-piperidin-2-one] | 6780 | 
12 | COc1cc(CC2C[C@@H](c3ccc(OC)c(-c4ccccc4)c3)CNC2=O)ccc1OC1CCCC1 (stereo partly drawn) [(5S)-3-(4-(cyclopentyloxy)-3-methoxybenzyl)-5-(6-methoxybiphenyl-3-yl)piperidin-2-one] | 519 | 
13 | COc1ccc([C@H]2CNC(=O)[C@H](CCCCCc3ccccc3)C2)cc1OC1CCCC1 [(3R,5S)-5-(3-(cyclopentyloxy)-4-methoxyphenyl)-3-(5-phenylpentyl)piperidin-2-one] | 578 | 
14 | COc1ccc([C@H]2CNC(=O)[C@@H](Cc3cccc(OCc4ccccc4)c3)C2)cc1OC1CCCC1 [(3R,5S)-3-(3-(benzyloxy)benzyl)-5-(3-(cyclopentyloxy)-4-methoxyphenyl)piperidin-2-one] | 189 | 
15 | CCOc1cc([C@H]2CNC(=O)C(Cc3ccc(F)cc3)(Cc3ccc(F)cc3)C2)ccc1OC [(S)-5-(3-ethoxy-4-methoxyphenyl)-3,3-bis(4-fluorobenzyl)piperidin-2-one] | 5080 | 
